From patent US20090215710A1, “CARBOHYDRATE BASED TOLL-LIKE RECEPTOR (TLR) ANTAGONISTS” (RELIANCE LIFE SCIENCES PVT. LTD., priority 2007, published 2009)

Key:
Balb/c mice = assay: LPS induced TNF-α release in Balb/c mice, treatment post LPS; format: in vivo; conditions: 30 min post LPS (225 μg i.p.)
Method: Here we have stimulated the inflammation process in mice with an injection of LPS (225 μg) intraperitoneally and 30 min post LPS, we have challenged the ability of RSCL-0409 (10 mg/kg, 20 mg/kg) to inhibit the TNF-α secretion.

NF-κB [1] = assay: NF-κB activation and nuclear translocation in LPS stimulated THP-1 cells (FACS phospho p65, immunoblot); format: cell-based, human
Method: Further, for the detection of intracellular location of phospho NF-κB p65 subunits, 1 hr LPS-stimulated cells with and without pretreatment of RSCL-0409 (50 μM—FIG. 7b) were fixed with 4% paraformaldehyde in PBS for 30 min and washed with Fluorescence-activated cell sorting (FACS) buffer [2% Fetal calm serum (FCS) in 1× Phosphate buffered saline (PBS)]. Permeabilisation is done using 90% methanol. These cells were then treated with phospho p65 monoclonal antibody tagged with Alexa Fluor 488 (Cell Signaling Technology, Inc, Ma, USA) for 1 hr at 37° C., followed by washing FACS buffer. Cells were then resuspended in PBS and acquired in BD FACS Calibur.
The nuclear fractions were obtained from LPS stimulated THP-1 cells at the indicated times (FIG. 7c). Nuclear proteins electrophoresed were processed for immunoblots using a NF-κB specific antibody.

TNF-α = assay: LPS induced TNF-α release in human PBMC; format: cell-based; conditions: PBMC isolated from human blood
From the text: In order to evaluate the ability of RSCL-0409 to inhibit LPS induced TNF-α secretion in a physiological scenario, the present invention has tested the same in PBMC isolated from human blood (FIG. 3). […] The TNF levels were not detectable in PBMCs without LPS and with RSCL-0409 treatment alone, indicating its specificity in LPS induced TNF-α through a TLR mediated process. ***P<0.001 value is for LPS treated vs. RSCL-0409 treated.

NF-κB [2] = assay: NF-κB SEAP reporter assay in THP-1 CD14 Blue cells; format: cell-based, human; conditions: LPS 250 ng/ml, 24 hr
Method: THP-1 CD14 Blue cells (Invivogen, San Diego, Calif., USA) transfected with a SEAP reporter construct in which the reporter expression was regulated by the NF-κB promoter were stimulated with LPS (250 ng/ml) with or without RSCL-0409 for 24 hr. […] The reporter activity was determined using Quanti Blue kit (Invivogen). The data (FIG. 8) is plotted as the relative change of reporter activity. NS; not significant, ** P value <0.01, *** P value <0.001 are statistics for Cells Vs RSCL-0409 treated and LPS treated vs. RSCL-0409 followed by LPS treatment respectively. These observations further confirm that the RSCL-0409 inhibits LPS induced TLR mediated activation of NF-κB transcription factor.

[3] = test system: TLR related genes (TIRAP, IRAK1, IRAK4, TRAF6, TRIF); assay: mRNA expression of TLR related genes in LPS stimulated THP-1 cells (PCR); format: cell-based, human; conditions: THP-1, LPS 250 ng/ml 1 hr
Method: Serum-starved THP-1 cells were stimulated with LPS (250 ng/ml) for 1 hr in the presence and absence of RSCL-0409. Total RNA was isolated from treated cells post LPS exposure. The cDNA was used for PCR against specific primers for the TLR related genes and β-actin was used as internal control.
To rule out the possibility of a TRIF dependent pathway, a MyD88 independent path, we have checked its expression levels also in the treated cells.

NEMO and IκB-α = assay: Immunoblot of NEMO and IκB-α in LPS stimulated THP-1 cells; format: cell-based, human; conditions: THP-1, LPS 250 ng/ml
Method: NF-κB/IκB complexes are present in the cytoplasm under unstimulated conditions. Following stimulation with LPS, we see phosphorylation and subsequent degradation of IκB allowing the free NF-κB to translocate into the nucleus to activate genes with NF-κB binding regions. Therefore, the effect of RSCL-0409 on blocking of NF-κB nuclear translocation was checked. Serum-starved THP-1 cells were stimulated with LPS (250 ng/ml) for the indicated time (FIG. 7a) in the presence and absence of RSCL-0409 ([…]). RSCL-0409 treatment was 1 hr prior to LPS treatment. Total protein was isolated from the treated cells, and an equal amount of protein from each sample was used for immunoblots to determine protein levels of NEMO and IκB-α. The blot was stripped and reprobed with an anti-ERK-1/2 antibody to ensure equal loading. […] This leads to inhibition of phosphorylation and further blocking p65 dissociation from IκB-α.

COX-2 pathway = assay: Arachadonic acid induced PGE2 release in A549 cells (EIA); format: cell-based, human
From the text: COX-2 is the key enzyme regulating the production of prostaglandins, which act as central mediators of inflammation. […] It is well documented COX-2 pathway inhibitors were regarded as promising nonsteroidal anti-inflammatory drugs (NSAIDs). So we decided to test the ability of RSCL-0409 to block the COX-2 pathway to substantiate our earlier mRNA observation. For that purpose, we chose A549 cells, a human lung cancer cell line where COX-2 is activated by AA in serum-free stimulation established by Yao et al for 12 hr. (Yao J C, Duan W G, Yun Y, Liu de Q, Yan M, Jiang Z Z, Zhang L Y. Screening method for nonsteroidal antiinflammatory drugs based on the cyclooxygenase 2 pathway activated by serum-free stimulation in A549 cells. Yakugaku Zasshi. 2007; 127: 527-32.) In order to determine the efficiency of our molecule, we have incorporated two known COX-2 NSAIDs-Piroxicam and Ibuprofen for comparison purposes. A549 cells (50×10^4 cells/well) in serum free medium were pretreated with different concentrations (10 μM, 5 μM, 2.5 μM, and 1.25 μM) of the NSAIDs and RSCL-0409 for 30 min. Then the cells were incubated with AA ([…]) for another 30 min. Prostaglandin E2 (PGE2), a metabolite of AA through the Cox pathway, was assayed in an enzyme immunoassay (EIA) kit from R&D systems.

COc1ccc(OC2OC3COC(c4ccccc4)OC3C(OC3OC(COC(=O)CCC(C)=O)C(OC(=O)CCl)C(OC(C)=O)C3OC(C)=O)C2NC(=O)C(Cl)(Cl)Cl)cc1 [RSCL-0409, p-Methoxy phenyl-O-(2,3-di-O-acetyl-4-O-chloroacetyl-6-O-levulinoyl-β-D-glucopyranosyl)-(1-3)-2-deoxy-2-trichloroacetamido-4,6-O-benzylidene-α-D-glucopyranoside]
inhibition of TNF secretion (Balb/c mice; 10 mg/kg): ~39%
inhibition of TNF secretion (Balb/c mice; 20 mg/kg): ~47%
phospho NF-κB p65 (FACS) (NF-κB [1]; THP-1, 1 hr LPS, 50 μM): inhibitory role in NF-κB signaling
translocation of NF-κB to the nucleus (NF-κB [1]; nuclear fractions of LPS stimulated THP-1 cells): blocked translocation of NF-κB into the nucleus
LPS induced TNF-α secretion (TNF-α): inhibitory effects similar to that seen in THP-1 cells
SEAP reporter activity (NF-κB promoter) (NF-κB [2]): blocked in a dose dependent manner
TRIF mRNA levels [3]: remained unaffected
expression level of TRAF6 [3]: not down regulated significantly
mRNA expression levels of TIRAP, IRAK1 and IRAK4 [3]: inhibits the mRNA expression levels of TIRAP, IL-1R-associated kinase1 (IRAK1) and IRAK4
activation of NEMO (NEMO and IκB-α): blocked signaling to NEMO
degradation of IκB-α (NEMO and IκB-α): accumulation of IκB-α
PGE2 release (COX-2 pathway; A549 cells, 10, 5, 2.5 and 1.25 μM, AA induced): concentration dependent inhibition of PGE2 release
concentration still effective on PGE2 release (COX-2 pathway; A549 cells, AA induced): 1.25 µM
inhibition of PGE2 in comparison with the NSAIDs (COX-2 pathway; at all the concentrations used): better than Piroxicam
